EC50 data for 6 compounds are collected here from patent publication US12139520B2 (priority 2020, dated 2024).

Numbered stars: 1 amine (or outer) side, 2 acyl side, 3 side chain; on linkers, the order of the positions; unused ones are H or OH. Bridge positions count the residues as written; N and C are the ends. Square brackets hold non-standard residues; d marks the D form. Side chains are listed from the residue outwards. Peptide text beside a SMILES is read from it. * marks the point of attachment. C20 diacid = O=C(O)CCCCCCCCCCCCCCCCCCC(=O)*; γGlu = O=C(O)[C@H](CCC(=O)[*:2])N[*:1]; Hyp = O=C(O)[C@@H]1C[C@@H](O)CN1; NMeI = CC[C@H](C)[C@H](NC)C(=O)O; Aad = N[C@@H](CCCC(=O)O)C(=O)O; AEEA = NCCOCCOCC(=O)O; Sar = CNCC(=O)O

For one assay, the target named is T1, hAMY3 receptor (Homo sapiens, UniProt O60896+P30988).
T1 sequence (P30988 25-474): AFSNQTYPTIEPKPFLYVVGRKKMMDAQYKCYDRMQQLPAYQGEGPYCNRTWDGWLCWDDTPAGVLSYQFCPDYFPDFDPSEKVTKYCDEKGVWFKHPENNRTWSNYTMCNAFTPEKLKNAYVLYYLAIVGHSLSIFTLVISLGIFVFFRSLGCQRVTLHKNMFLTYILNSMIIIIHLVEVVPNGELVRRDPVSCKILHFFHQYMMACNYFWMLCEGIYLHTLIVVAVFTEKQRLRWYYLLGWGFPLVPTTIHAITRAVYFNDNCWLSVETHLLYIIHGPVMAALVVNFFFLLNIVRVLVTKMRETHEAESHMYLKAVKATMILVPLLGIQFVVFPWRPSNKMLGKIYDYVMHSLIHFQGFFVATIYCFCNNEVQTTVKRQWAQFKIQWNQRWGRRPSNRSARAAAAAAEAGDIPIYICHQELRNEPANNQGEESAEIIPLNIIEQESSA
T1 sequence (O60896 24-148 partner): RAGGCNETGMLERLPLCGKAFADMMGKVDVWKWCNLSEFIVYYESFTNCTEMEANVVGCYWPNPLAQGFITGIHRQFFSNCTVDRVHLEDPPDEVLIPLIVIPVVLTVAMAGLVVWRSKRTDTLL
As to the kind of experiment: cAMP assay for in vitro receptor activation, hAMY3-R. The class given is cell-based. As to conditions: cAMP assay, hAMY3 receptor; read-out: hAMY3R EC50. Summed up:
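Monoclonal cell line stably overexpressing hAMY3 receptor, plated in DPBS with 0.05% casein and 0.5 mM IBMX, was stimulated with graded compound doses for 30 min at room temperature. cAMP accumulation was read by time-resolved FRET one hour after adding detection reagents.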

For another assay, the target named is hAM1 receptor (Homo sapiens, UniProt O60895+Q16602). Nature of the assay: cAMP assay for in vitro receptor activation, hAM1-R. As to conditions: cAMP assay, hAM1 receptor; read-out: hAM1R EC50. The class given is cell-based. Summed up:
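Read-out is intracellular cAMP as a measure of receptor activation. Cells stably overexpressing hAM1 were subcloned to a monoclonal line, then thawed and seeded at 8000 cells/well in DPBS with 0.05% casein and the phosphodiesterase inhibitor IBMX at 0.5 mM.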
(In general: cAMP levels reflect the balance of adenylyl cyclase and phosphodiesterase activity.)

Sequence of hAM1 receptor (Q16602 23-461): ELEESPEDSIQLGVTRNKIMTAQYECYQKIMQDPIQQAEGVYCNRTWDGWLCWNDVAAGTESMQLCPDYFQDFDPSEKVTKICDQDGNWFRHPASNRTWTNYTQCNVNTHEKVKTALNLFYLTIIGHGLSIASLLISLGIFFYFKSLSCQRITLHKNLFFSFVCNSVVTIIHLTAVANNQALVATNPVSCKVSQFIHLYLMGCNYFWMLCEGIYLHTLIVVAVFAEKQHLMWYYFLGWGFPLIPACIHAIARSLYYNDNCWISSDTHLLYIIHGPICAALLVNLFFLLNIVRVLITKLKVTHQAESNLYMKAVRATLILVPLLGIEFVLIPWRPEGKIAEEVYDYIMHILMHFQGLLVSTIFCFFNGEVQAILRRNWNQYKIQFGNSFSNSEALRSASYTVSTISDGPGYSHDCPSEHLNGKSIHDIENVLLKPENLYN
Sequence of hAM1 receptor (O60895 43-175 partner): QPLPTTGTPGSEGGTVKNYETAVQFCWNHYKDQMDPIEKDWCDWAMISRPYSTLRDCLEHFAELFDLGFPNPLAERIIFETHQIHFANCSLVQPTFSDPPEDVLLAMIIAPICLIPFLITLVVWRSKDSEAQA

As to `CC[C@H](C)[C@H](NC(=O)[C@H](CCC(N)=O)NC(=O)[C@H](Cc1c[nH]cn1)NC(=O)[C@H](C)NC(=O)[C@H](CC(C)C)NC(=O)[C@H](CCCNC(=N)N)NC(=O)[C@H](CCC(N)=O)NC(=O)[C@@H](NC(=O)[C@@H](NC(=O)[C@@H]1CSSC[C@H](NC(=O)[C@H](CCCCN)NC(=O)CC[C@H](NC(=O)CCCCCCCCCCCCCCCCCCC(=O)O)C(=O)O)C(=O)N[C@@H](CC(N)=O)C(=O)N[C@@H]([C@@H](C)O)C(=O)N[C@@H](C)C(=O)N[C@@H]([C@@H](C)O)C(=O)N1)[C@@H](C)O)C(C)C)C(=O)N[C@@H](C)C(=O)N[C@@H](CCC(N)=O)C(=O)N[C@@H](Cc1ccc(O)cc1)C(=O)N[C@H](C(=O)N[C@@H](CC(=O)O)C(=O)N[C@@H](CCCCN)C(=O)N[C@@H](CC(=O)O)C(=O)N[C@@H](CCCCN)C(=O)N[C@@H](CC(=O)O)C(=O)N[C@@H](CC(N)=O)C(=O)N[C@H](C(=O)N[C@@H](C)C(=O)N1CCC[C@H]1C(=O)N1CCC[C@H]1C(=O)N[C@H](C(=O)N[C@@H](CC(N)=O)C(=O)N[C@H](C(=O)NCC(=O)N[C@@H](CO)C(=O)N[C@@H](CC(N)=O)C(=O)NCC(=O)N1C[C@H](O)C[C@H]1C(N)=O)C(C)C)[C@@H](C)O)C(C)C)[C@@H](C)O` [compound 71] ({C20 diacid-γGlu}-KCNTATCTVQRLAHQIAQYTDKDKDNVAPPTNVGSNG[Hyp]-NH2; disulfide 2-7), the EC50 on hAMY3 receptor was 0.013 nM; at hAM1 receptor it was more than 5000 nM.

For `CC[C@H](C)[C@H](NC(=O)[C@H](CCC(N)=O)NC(=O)[C@H](CCC(=O)O)NC(=O)[C@H](C)NC(=O)[C@H](CC(C)C)NC(=O)[C@H](CCCNC(=N)N)NC(=O)[C@H](CCC(N)=O)NC(=O)[C@@H](NC(=O)[C@@H](NC(=O)[C@@H]1CSSC[C@H](NC(=O)[C@H](CCCCN)NC(=O)CC[C@H](NC(=O)CCCCCCCCCCCCCCCCCCC(=O)O)C(=O)O)C(=O)N[C@@H](CC(N)=O)C(=O)N[C@@H]([C@@H](C)O)C(=O)N[C@@H](C)C(=O)N[C@@H]([C@@H](C)O)C(=O)N1)[C@@H](C)O)C(C)C)C(=O)N[C@@H](Cc1ccc(O)cc1)C(=O)N[C@@H](CCC(N)=O)C(=O)N[C@@H](Cc1ccccc1)C(=O)N[C@H](C(=O)N[C@@H](CC(=O)O)C(=O)N[C@@H](CCCCN)C(=O)N[C@@H](CC(=O)O)C(=O)N[C@@H](CCCCN)C(=O)N[C@@H](CC(=O)O)C(=O)N[C@@H](CC(N)=O)C(=O)N[C@H](C(=O)N[C@@H](C)C(=O)N1CCC[C@H]1C(=O)N1CCC[C@H]1C(=O)N[C@H](C(=O)N[C@@H](CCC(N)=O)C(=O)N[C@H](C(=O)NCC(=O)N[C@@H](CO)C(=O)N[C@@H](CC(N)=O)C(=O)NCC(=O)N1C[C@H](O)C[C@H]1C(N)=O)C(C)C)[C@@H](C)O)C(C)C)[C@@H](C)O` [compound 73] ({C20 diacid-γGlu}-KCNTATCTVQRLAEQIYQFTDKDKDNVAPPTQVGSNG[Hyp]-NH2; disulfide 2-7), the EC50 is 0.013 nM at hAMY3 receptor and more than 5000 nM at hAM1 receptor.

For `CC[C@H](C)[C@H](NC(=O)[C@H](CCC(N)=O)NC(=O)[C@H](CCCCNC(=O)COCCOCCNC(=O)COCCOCCNC(=O)CC[C@H](NC(=O)CCCCCCCCCCCCCCCCCCC(=O)O)C(=O)O)NC(=O)[C@H](C)NC(=O)[C@H](CC(C)C)NC(=O)[C@H](CCCNC(=N)N)NC(=O)[C@H](CCC(N)=O)NC(=O)[C@@H](NC(=O)[C@@H](NC(=O)[C@@H]1CSSC[C@H](NC(=O)[C@@H](N)CCCCN)C(=O)N[C@@H](CC(N)=O)C(=O)N[C@@H]([C@@H](C)O)C(=O)N[C@@H](C)C(=O)N[C@@H]([C@@H](C)O)C(=O)N1)[C@@H](C)O)C(C)C)C(=O)N[C@@H](Cc1ccc(O)cc1)C(=O)N[C@@H](CCC(N)=O)C(=O)N[C@@H](Cc1ccccc1)C(=O)N[C@H](C(=O)N[C@@H](CC(=O)O)C(=O)N[C@@H](CCCCN)C(=O)N[C@@H](CC(=O)O)C(=O)N[C@@H](CCCCN)C(=O)N[C@@H](CC(=O)O)C(=O)N[C@@H](CC(N)=O)C(=O)N[C@H](C(=O)N[C@@H](C)C(=O)N1CCC[C@H]1C(=O)N1CCC[C@H]1C(=O)N[C@H](C(=O)N[C@@H](CC(N)=O)C(=O)N[C@H](C(=O)NCC(=O)N[C@@H](CO)C(=O)N[C@@H](CC(N)=O)C(=O)NCC(=O)N1C[C@H](O)C[C@H]1C(N)=O)C(C)C)[C@@H](C)O)C(C)C)[C@@H](C)O` [compound 74] (H-KCNTATCTVQRLAK([AEEA-AEEA-γGlu-C20 diacid])QIYQFTDKDKDNVAPPTNVGSNG[Hyp]-NH2; disulfide 2-7; N-terminus assumed), the values for the EC50 on hAMY3 receptor and on hAM1 receptor were 0.013 nM and more than 5000 nM, respectively.

Regarding `CC[C@H](C)[C@H](NC(=O)[C@H](CCC(N)=O)NC(=O)[C@H](Cc1c[nH]cn1)NC(=O)[C@H](C)NC(=O)[C@H](CC(C)C)NC(=O)[C@H](CCCNC(=N)N)NC(=O)[C@H](CCC(N)=O)NC(=O)[C@@H](NC(=O)[C@@H](NC(=O)[C@@H]1CSSC[C@H](NC(=O)[C@@H](N)CCCCN)C(=O)N[C@@H](CC(N)=O)C(=O)N[C@@H]([C@@H](C)O)C(=O)N[C@@H](C)C(=O)N[C@@H]([C@@H](C)O)C(=O)N1)[C@@H](C)O)C(C)C)C(=O)N[C@@H](Cc1ccc(O)cc1)C(=O)N[C@@H](CCC(N)=O)C(=O)N[C@@H](Cc1ccccc1)C(=O)N[C@H](C(=O)N[C@@H](CC(=O)O)C(=O)N[C@@H](CCCCN)C(=O)N[C@@H](CC(=O)O)C(=O)N[C@@H](CCCCN)C(=O)N[C@@H](CC(=O)O)C(=O)N[C@@H](CC(N)=O)C(=O)N[C@H](C(=O)N[C@@H](C)C(=O)N1CCC[C@H]1C(=O)N1CCC[C@H]1C(=O)N[C@H](C(=O)N[C@@H](CC(N)=O)C(=O)N[C@H](C(=O)NCC(=O)N[C@@H](CO)C(=O)N[C@@H](CC(N)=O)C(=O)NCC(=O)N1C[C@H](O)C[C@H]1C(N)=O)C(C)C)[C@@H](C)O)C(C)C)[C@@H](C)O` [compound 75] (H-KCNTATCTVQRLAHQIYQFTDKDKDNVAPPTNVGSNG[Hyp]-NH2; disulfide 2-7; N-terminus assumed), the values for the concentration for a half-maximal effect (EC50) at hAMY3 receptor and at hAM1 receptor were 0.013 nM and more than 5000 nM, respectively.

Regarding `CC[C@H](C)[C@@H](C(=O)N[C@@H](CC(C)C)C(=O)N[C@@H](CO)C(=O)N[C@@H](CO)C(=O)N[C@H](C(=O)N[C@@H](CCC(=O)O)C(=O)N[C@H](C(=O)NCC(=O)N[C@@H](CO)C(=O)N[C@@H](CC(N)=O)C(=O)N[C@H](C(=O)N1C[C@H](O)C[C@H]1C(N)=O)[C@@H](C)O)C(C)C)[C@@H](C)O)N(C)C(=O)[C@H](C)NC(=O)CN(C)C(=O)[C@H](Cc1ccccc1)NC(=O)[C@H](CO)NC(=O)[C@H](CO)NC(=O)[C@H](CCCNC(=N)N)NC(=O)[C@H](CCC(N)=O)NC(=O)[C@H](CC(C)C)NC(=O)[C@H](Cc1ccccc1)NC(=O)[C@H](CCCC(=O)O)NC(=O)[C@H](C)NC(=O)[C@H](CC(C)C)NC(=O)[C@H](CCCNC(=N)N)NC(=O)[C@H](CCC(=O)O)NC(=O)[C@@H](NC(=O)[C@H](C)NC(=O)[C@@H]1CSSC[C@H](NC(=O)[C@H](CCCNC(=N)N)NC(=O)CC[C@H](NC(=O)CCCCCCCCCCCCCCCCCCC(=O)O)C(=O)O)C(=O)NCC(=O)N[C@@H]([C@@H](C)O)C(=O)N[C@@H](C)C(=O)N[C@@H]([C@@H](C)O)C(=O)N1)[C@@H](C)O` [compound 76] ({C20 diacid-γGlu}-RCGTATCATERLA[Aad]FLQRSSF[Sar]A[NMeI]LSSTEVGSNT[Hyp]-NH2; disulfide 2-7), the figures for the EC50 at hAMY3 receptor and at hAM1 receptor were 0.014 nM and more than 5000 nM, respectively.

Regarding `CC[C@H](C)[C@H](NC(=O)[C@H](CCC(N)=O)NC(=O)[C@H](Cc1c[nH]cn1)NC(=O)[C@H](C)NC(=O)[C@H](CC(C)C)NC(=O)[C@H](CCCNC(=N)N)NC(=O)[C@H](CCC(N)=O)NC(=O)[C@@H](NC(=O)[C@@H](NC(=O)[C@@H]1CSSC[C@H](NC(=O)[C@H](CCCCN)NC(=O)CC[C@H](NC(=O)CCCCCCCCCCCCCCCCCCC(=O)O)C(=O)O)C(=O)N[C@@H](CC(N)=O)C(=O)N[C@@H]([C@@H](C)O)C(=O)N[C@@H](C)C(=O)N[C@@H]([C@@H](C)O)C(=O)N1)[C@@H](C)O)C(C)C)C(=O)N[C@@H](Cc1ccc(O)cc1)C(=O)N[C@@H](CCC(N)=O)C(=O)N[C@@H](Cc1ccccc1)C(=O)N[C@H](C(=O)N[C@@H](CC(=O)O)C(=O)N[C@@H](CCCCN)C(=O)N[C@@H](CC(=O)O)C(=O)N[C@@H](CCCCN)C(=O)N[C@@H](CC(=O)O)C(=O)N[C@@H](CC(N)=O)C(=O)N[C@H](C(=O)N[C@@H](C)C(=O)N1CCC[C@H]1C(=O)N1CCC[C@H]1C(=O)N[C@H](C(=O)N[C@@H](CC(N)=O)C(=O)N[C@H](C(=O)NCC(=O)N[C@@H](CO)C(=O)N[C@@H](CC(N)=O)C(=O)NCC(=O)N1C[C@H](O)C[C@H]1C(N)=O)C(C)C)[C@@H](C)O)C(C)C)[C@@H](C)O` [compound 77] ({C20 diacid-γGlu}-KCNTATCTVQRLAHQIYQFTDKDKDNVAPPTNVGSNG[Hyp]-NH2; disulfide 2-7), the EC50 at hAMY3 receptor is 0.014 nM; on hAM1 receptor, more than 5000 nM.

Usually EC50 stands for the concentration that produces a half-maximal response.
